Experimental data reported in US11033545B2, “Negative allosteric modulators of MGLUR5 for use in the treatment of mature brain damages” (Sinntaxis AB, priority 2016, dated 2021).

Tests used:
Assay type in all cases: in vivo
male C57/BL6 mice [1] = assay: Infarct size after photothrombotic stroke in the mouse; settings: 5 mg/kg i.p. for 5 days, FIG. 2B
Protocol: Tissue collection. The animals were deeply anesthetized (isoflurane) and perfusion-fixed with 4% paraformaldehyde (PFA) solution. Brains were collected and immersed in 4% PFA solution for 4 h, then transferred into a 25% sucrose phosphate buffer solution (0.1 M NaH2PO4, 0.1 M Na2HPO4) and stored at 4° C. Brains were then cut in 30 μm slices using a microtome and one slice was kept each 1 mm for infarct size measurement. The others were kept for immunohistochemistry and immunofluorescence. All the slices were stored in anti-freeze solution (30% ethylene glycol, 30% glycerol, 0.01 M NaH2PO4, 0.03 M Na2HPO4) at −20° C.
Immunohistochemistry. Free-floating brain slices were rinsed three times in PBS (phosphate buffer saline) and quenched in 3% H2O2 and 10% MetOH for 15 minutes. […]
Infarct measurements. […] Twelve slices 1 mm apart, were scanned, and the non-lesioned area of the infarcted hemisphere and the non-lesioned contralateral hemisphere were outlined and measured using the ImageJ software (National Institute of Health, USA). Infarct volume (mm^3) was determined by subtracting the area of the non-lesioned ipsilateral hemisphere from that of the intact contralateral hemisphere, and calculated by volumetric integration for each animal. […]
The animals were perfused and immunostained as in Example 1, and the infarct size was assessed as in Example 1.

male Sprague Dawley rats = assay: Infarct size after photothrombotic stroke in the rat; settings: 5 mg/kg i.p., FIG. 1B
Protocol: Experimental stroke. The animals were anesthetized by isoflurane (approximately 2% in 02 under spontaneous ventilation) and placed into stereotaxic frame. Temperature was monitored during surgery using a rectal temperature probe and animals were kept at 37.0-37.5±0.2° C. by means of a heating pad with feedback control. A sagittal skin incision was made and subcutaneous connective tissue was removed and the skull was dried. Thereafter, the photosensitizer dye Rose Bengal (0.5 mL at 10 mg/mL) was infused in the tail vein. […] The functional deficit was assessed 2 h after the onset of the stroke using the limb placement test and only the animals having a score 0, for both fore- and hindlimb contralateral to the brain damaged hemisphere were used for the study. […]
Infarct measurements. […] Twelve slices 1 mm apart, were scanned, and the non-lesioned area of the infarcted hemisphere and the non-lesioned contralateral hemisphere were outlined and measured using the ImageJ software (National Institute of Health, USA). Infarct volume (mm^3) was determined by subtracting the area of the non-lesioned ipsilateral hemisphere from that of the intact contralateral hemisphere, and calculated by volumetric integration for each animal.

male C57/BL6 mice [2] = assay: Paw placement test after photothrombotic stroke in the mouse
male C57/BL6 mice [3] = assay: as above; settings: mouse; five days treatment initiated 10 days after stroke; FIG. 2C
Protocol: Animals. All experiments were carried out with the approval of the Malmo-Lund animal review board and according to the ARRIVE guidelines. The experiments were carried out on male C57/BL6 mice (8 weeks of age, Charles River Scanbur A/S Karlslunde, Denmark). Studies were subjected to randomization and carried out in a blinded fashion to the investigators who performed the surgeries and behavioral assessment.
Materials were as in Example 1 and the administration of the drug was made as in Example 1. Also the positive allosteric modulator (PAM) for the mGlur5 receptor was SIN006 (N-Cyclobutyl-6-[2-(3-fluorophenyl)ethynyl]-3-pyridinecarboxamide hydrochloride; VU0360172).
Induction of stroke in the mouse. Mice were subjected to unilateral photothrombotic (PT) cortical infarct in the left sensori-motor cortex. During surgery, the body temperature of the animals was kept at 37° C. using a self-regulating heating pad. Animals were anesthetized using 1.5-2.5% isoflurane (Sigma) in 100% 02. The skin above the skull was incised; a fiber optic bundle with a 2.5 mm aperture diameter was connected to a cold light source (CL 1500 ECO, Zeiss, Germany) and adjusted to the stereotaxic coordinates of the sensori-motor cortex, 0.5 mm anterior to bregma and 1.5 mm lateral to midline. One intraperitoneal (i.p.) injection of 0.25 ml Rose Bengal (10 mg/ml in 0.9% saline; Sigma-Aldrich, Germany) was given 5 min before the light was turned on for 20 minutes. Care was taken not to exceed 38° C. at the skull surface, underneath the fiber optic bundle. Post surgery, animals were allowed to awake from anesthesia while on a heating pad and returned to the cages with free access to food pellets and water.
Enriched housing. It is well known that housing of rodents in an enriched environment stimulates the various sensori-motor systems of the brain enhancing recovery after experimental stroke. Enriched housing was accomplished by the following procedure. After selective sorting at day 2 after stroke, mice were randomly distributed into standard (STD, 17 cm×16 cm×34.5 cm) or enriched cages (EE, 30 cm×27 cm×43 cm). Multilevel-enriched cages were equipped with various colored objects such as plastic tunnels, small houses, slides and rodent running wheels; the disposition of the objects was changed every second day. Mice were housed in either standard (2 animals/cage) or enriched cages (6-8 animals/cage) for 12 days. Animals in standard cages were handled similarly except for the housing condition.
Paw placement test. The mouse was held along its rostro-caudal extension on the edge of a bench and both the unilateral front and hind paws were gently pushed along it. The placement of each paw was recorded when the mouse was moved towards the edge. Sensori-motor dysfunction was assessed by using a score of 1, 0.5, and 0: (1)—the paw is immediately placed on the table surface; (0.5)—the limb is extended, but with some movements and attempts to place the paw on the surface of the table; (0)—the paw is totally immobilized, hanging down, with no movement. In order to obtain groups with a similar functional deficit prior to treatment of the animals with drugs or vehicle, selective sorting was performed on day 2 after experimental stroke, a time point of recovery when the infarct development had subsided.
Administration of the compounds. The compounds were administrated orally (p.o.) by catheters placed in the stomach. The amount of solutions were 0.2 ml/rat and 0.1 ml/mice.
Induction of stroke was as made as in Example 1 for rats and as in Example 2 in mice. Assessment of neurological function was performed as in Example 1 for rats and as in Example 2 for mice. The animals were perfused and immunostained as in Example 1, and the infarct size was assessed as in Example 1.

With Cc1nc(C#Cc2cccnc2)cs1 [SIN007, 3-[(2methyl-1,3-thiazol-4-yl)ethynyl]pyridine] the infarct size (male C57/BL6 mice [1]) was 8.9±0.9 mm^3, the “mean infarct size compared to vehicle” value (male C57/BL6 mice [1]) was “the mean infarct size was the same in the two groups” and the “infarct size compared to vehicle” value (male Sprague Dawley rats) was “no difference in infarct size”. The infarct size (male Sprague Dawley rats; animals of FIG. 1A) was 19.5±4.6 mm^3, the recovery of function (male C57/BL6 mice [2]; 1 mg/kg i.p. daily for 3 days, standard housing, FIG. 2F) was “moderately enhances recovery of function” and the “recovery of function, combined with enriched environment” value (male C57/BL6 mice [2]; 1 mg/kg i.p. for 3 days plus housing in enriched environment, FIG. 2F) was “significantly improves recovery”. For the same compound, the “functional recovery (paw placement)” value (male C57/BL6 mice [2]; 5 mg/kg i.p. daily for 5 days starting 2 days after stroke, vs vehicle, p<0.01, FIG. 2A) was “strong recovery enhancing effect”, the “paw placement score after 5 days of treatment” value (male C57/BL6 mice [2]; SIN007 5 mg/kg i.p. alone, vs vehicle, FIG. 2D) was “recovered paw function” and the “recovery of function, delayed treatment” value (male C57/BL6 mice [3]) was “the recovery of function is the same as when treatment is initiated at 2 days after stroke”.
